Assay results published in patent US9670204B2, “Compounds and pharmaceutical compositions thereof for the treatment of inflammatory disorders” (Galapagos NV, priority 2013, dated 2017).
pIC50: −log10 of the molar value.

Key:
hENPP2 [1] = biological target: T1, hENPP2 (UniProtKB/SwissProt Q13822) (Homo sapiens (Human), UniProt Q13822); test: hENPP2 biochemical assay, LPC as substrate; conditions: LPC (palmitoyl 16:0) as substrate
Method in brief: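 Human ENPP2 in 50 mM Tris-HCl pH 8.5, 500 mM NaCl, 5 mM KCl, 10 mM CaCl2, 0.1% fatty-acid-free BSA, reacted 30 min at 37 °C with LPC 16:0 (150 µM solution added 1:1). Released choline measured via choline oxidase/peroxidase/TOOS/4-aminoantipyrine quinoneimine dye at 555 nm; IC50 reported.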

hENPP2 [2] = biological target: T1, hENPP2; test: fluorescent hENPP2 biochemical assay, FS-3 as substrate; conditions: read-out: FS3-IC50
Method in brief: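 IC50 values come from fluorescence gained as FS-3 is hydrolysed (ex 485, em 520 nm). The reaction, started by adding 0.75 μM FS-3 solution, runs 30 min at 30° C after a 30 min room-temperature preincubation of compound with enzyme. Buffer: Tris-HCl pH 8.0 with NaCl, KCl, MgCl2, CaCl2 and 0.1% BSA.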

LPA 18:2 in human plasma = test: Human whole blood (plasma) LPA assay; assay type: biochemical; conditions: 2 h at 37 C, LPA 18:2 by LC-MS/MS
Protocol: Blood is collected from healthy volunteers who gave informed consent into sodium heparin tubes by venipuncture, then gently inverted several times to prevent clotting. Tubes are centrifuged at 3000 rpm for 15 min at 4° C. then plasma is stored at −80° C. Compounds are diluted in DMSO in concentration dependent manner then 0.5 μL are dispensed into 96-well plate placed in ice. Plasma is defrosted on ice then 49.5 μL of plasma are added into the well containing 0.5 μL of compound (1% DMSO final). Plates are covered with a lid in polypropylene and incubated at +37° C., 5% CO2, for 2 h under gentle shaking (except controls which are stored at −20° C.).
At the end of the incubation, controls are defrosted in ice and transferred in the incubated plates for LC-MS/MS analysis with a non GLP-validated method. For the analysis, plasma proteins from a 10 μL incubated plates are precipitated with an excess of methanol containing the internal standard, LPA 17:0. After centrifugation, the corresponding supernatant is injected on a C18 column. Analytes are eluted out of the column under isocratic conditions. An API5500 QTRAP mass spectrometer (ABSciex™) is used for the detection of LPA 18:2. No calibration curve is prepared for LPA 18:2, however relative quantities are evaluated based on the peak area.

LPA 18:2 in rat plasma = test: Rat whole blood (plasma) LPA assay; assay type: biochemical; conditions: 2 h at 37 C, LPA 18:2 by LC-MS/MS
Method in brief: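 Heparinised rat plasma spiked with compound (1% DMSO final), incubated 2 h at 37 °C, 5% CO2 with shaking; controls kept at −20 °C. After methanol precipitation with LPA 17:0 internal standard, LPA 18:2 measured by LC-MS/MS (C18, isocratic), relative quantities from peak area without calibration.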

Compound	pIC50 (hENPP2 [1])	pIC50 (hENPP2 [2])	pIC50 (LPA 18:2 in human plasma)	pIC50 (LPA 18:2 in rat plasma)
CCc1nc2ccc(C3CCN(S(C)(=O)=O)CC3)cn2c1N(C)c1nc(-c2ccc(F)cc2)cs1 [Compound 80, N-(2-ethyl-6-(1-(methylsulfonyl)piperidin-4-yl)imidazo[1,2-a]pyridin-3-yl)-4-(4-fluorophenyl)-N-methylthiazol-2-amine]	6.00 to 6.30	7.00 to 11.00	< 6.00	6.00 to 6.30
CCc1nc2ccc(C3CCN(CC(=O)N4CC(O)C4)CC3)cn2c1N(C)c1nc(-c2ccc(F)cc2)cs1 [Compound 110, 2-(4-(2-ethyl-3-((4-(4-fluorophenyl)thiazol-2-yl)(methyl)amino)imidazo[1,2-a]pyridin-6-yl)piperidin-1-yl)-(3-hydroxyazetidin-1-yl)ethanone]	6.30 to 7.00	7.00 to 11.00	< 6.00	< 6.00
CCc1nc2ccc(C3CCN(S(C)(=O)=O)CC3)cn2c1N(C)c1nc(-c2ccc(F)cc2)c(CO)s1 [Compound 147, (2-((2-ethyl-6-(1-(methylsulfonyl)piperidin-4-yl)imidazo[1,2-a]pyridin-3-yl)(methyl)amino)-4-(4-fluorophenyl)thiazol-5-yl)methanol]	6.30 to 7.00	7.00 to 11.00		6.30 to 7.00

Further lines, results first:

pIC50 (hENPP2 [1])	pIC50 (hENPP2 [2])	pIC50 (LPA 18:2 in human plasma)	pIC50 (LPA 18:2 in rat plasma)	Compound
		6.30 to 7.00	7.00 to 11.00	CCc1nc2c(F)cc(N3CCN(CC(=O)NC)CC3)cn2c1N(C)c1nc(-c2ccc(F)cc2)c(C#N)s1 [Compound 13, 2-(4-(3-((5-cyano-4-(4-fluorophenyl)thiazol-2-yl)(methyl)amino)-2-ethyl-8-fluoroimidazo[1,2-a]pyridin-6-yl)piperazin-1-yl)-N-methylacetamide]
7.00 to 11.00	7.00 to 11.00		7.00 to 11.00	CCc1nc2ccc(C3CCN(CC(=O)N4CC(O)C4)CC3)cn2c1N(C)c1nc(-c2ccc(F)cc2)c(C#N)s1 [Compound 141, 2-((2-ethyl-6-(1-(2-(3-hydroxyazetidin-1-yl)-2-oxoethyl)piperidin-4-yl)imidazo[1,2-a]pyridin-3-yl)(methyl)amino)-4-(4-fluorophenyl)thiazole-5-carbonitrile]
< 6.00	7.00 to 11.00		< 6.00	CCc1nc2ccc(N3CCN(CCO)CC3)cn2c1N(C)c1nc(-c2ccc(F)cc2)cs1 [Compound 180, 2-(4-(2-ethyl-3-((4-(4-fluorophenyl)thiazol-2-yl)(methyl)amino)imidazo [1,2-a]pyridin-6-yl)piperazin-1-yl)ethanol]
< 6.00	7.00 to 11.00		< 6.00	CCc1nc2ccc(N3CCN(CCO)CC3)cn2c1N(C)c1nc(-c2ccc(Cl)cc2)cs1 [Compound 212, 2-(4-(3-((4-(4-chlorophenyl)thiazol-2-yl)(methyl)amino)-2-ethylimidazo[1,2-a]pyridin-6-yl)piperazin-1-yl)ethanol]
7.00 to 11.00	7.00 to 11.00		6.30 to 7.00	CCc1nc2ccc(C3CCN(CC(=O)N(C)C)CC3)cn2c1N(C)c1nc(-c2ccc(F)cc2C#N)cs1 [Compound 171, 2-(4-(3-((4-(2-cyano-4-fluorophenyl)thiazol-2-yl)(methyl)amino)-2-ethylimidazo[1,2-a]pyridin-6-yl)piperidin-1-yl)-N,N-dimethylacetamide]
